Measured values published in publication PMC6496959 (Journal of medicinal chemistry, 2018).

Key:
MDCK cells = conditions: minimal change in cell morphology after 48 h incubation
[1] = tested on: A/Guangzhou/GIRD/07/2009 (H1N1); experiment: microbe, parasite or virus in culture; format: cell-based; conditions: Influenza A virus, H1N1, MDCK, 48 h, read-out: Activity (EC50, μM)
[2] = tested on: influenza virus (A/PR/8/34)

NC12CC3CC(CC(C3)C1)C2 [Amantadine, amantadine, reference compound]
MCC (minimum cytotoxic concentration) (MDCK cells): >100 µM

C[C@H]1[C@H](NCc2cncnc2)C[C@H]2C[C@@H]1C2(C)C [Compound 1]
EC50 [1]: > 50 µM | MCC (minimum cytotoxic concentration) (MDCK cells): >100 µM

C[C@H]1[C@H](NCc2cnccn2)C[C@H]2C[C@@H]1C2(C)C [Compound 2]
EC50 [1]: > 50 µM | MCC (minimum cytotoxic concentration) (MDCK cells): >100 µM

Cc1n[nH]cc1CN[C@@H]1C[C@H]2C[C@@H]([C@H]1C)C2(C)C [Compound 3]
EC50 [1]: > 50 µM | MCC (minimum cytotoxic concentration) (MDCK cells): >100 µM

C[C@H]1[C@H](NCc2ccoc2)C[C@H]2C[C@@H]1C2(C)C [Compound 4]
MCC (minimum cytotoxic concentration) (MDCK cells): >100 µM

C[C@H]1[C@H](NCc2ccco2)C[C@H]2C[C@@H]1C2(C)C [Compound 5]
EC50 [1]: > 50 µM | MCC (minimum cytotoxic concentration) (MDCK cells): 50 µM

C[C@H]1[C@H](NCc2ccsc2)C[C@H]2C[C@@H]1C2(C)C [Compound 6]
MCC (minimum cytotoxic concentration) (MDCK cells): 50 µM

C[C@H]1[C@H](NCc2cccs2)C[C@H]2C[C@@H]1C2(C)C [Compound 7]
MCC (minimum cytotoxic concentration) (MDCK cells): 25 µM

C[C@H]1[C@H](NCc2nccs2)C[C@H]2C[C@@H]1C2(C)C [Compound 8]
EC50 [1]: > 50 µM | MCC (minimum cytotoxic concentration) (MDCK cells): >100 µM

C[C@H]1[C@H](NCc2cncs2)C[C@H]2C[C@@H]1C2(C)C [Compound 9]
EC50 [1]: > 50 µM | MCC (minimum cytotoxic concentration) (MDCK cells): >100 µM

Cc1csc(CN[C@@H]2C[C@H]3C[C@@H]([C@H]2C)C3(C)C)n1 [Compound 10]
MCC (minimum cytotoxic concentration) (MDCK cells): >100 µM

Cc1ccsc1CN[C@@H]1C[C@H]2C[C@@H]([C@H]1C)C2(C)C [Compound 11]
EC50 [1]: > 0.78 µM | MCC (minimum cytotoxic concentration) (MDCK cells): 10 µM

CCc1ccsc1CN[C@@H]1C[C@H]2C[C@@H]([C@H]1C)C2(C)C [Compound 12]
EC50 [1]: > 0.78 µM | MCC (minimum cytotoxic concentration) (MDCK cells): 25 µM

C[C@H]1[C@H](NCc2sccc2Br)C[C@H]2C[C@@H]1C2(C)C [Compound 13]
EC50 [1]: > 0.78 µM | MCC (minimum cytotoxic concentration) (MDCK cells): 50 µM

CCCc1ccsc1CN[C@@H]1C[C@H]2C[C@@H]([C@H]1C)C2(C)C [Compound 14]
EC50 [1]: > 0.78 µM | MCC (minimum cytotoxic concentration) (MDCK cells): 50 µM

CCCCc1ccsc1CN[C@@H]1C[C@H]2C[C@@H]([C@H]1C)C2(C)C [Compound 15]
MCC (minimum cytotoxic concentration) (MDCK cells): 25 µM

CCOc1ccsc1CN[C@@H]1C[C@H]2C[C@@H]([C@H]1C)C2(C)C [Compound 16]
EC50 [1]: > 0.78 µM | MCC (minimum cytotoxic concentration) (MDCK cells): 50 µM

C=Cc1ccsc1CN[C@@H]1C[C@H]2C[C@@H]([C@H]1C)C2(C)C [Compound 17]
MCC (minimum cytotoxic concentration) (MDCK cells): 50 µM

C[C@H]1[C@H](NCc2sccc2C2CC2)C[C@H]2C[C@@H]1C2(C)C [Compound 18]
inhibition of virus-induced aggregation of chicken erythrocytes [2]: did not inhibit

C[C@H]1[C@H](NCc2sccc2C2CCCC2)C[C@H]2C[C@@H]1C2(C)C [Compound 19]
MCC (minimum cytotoxic concentration) (MDCK cells): 12.5 µM

C[C@H]1[C@H](NCc2sccc2C2CCCCC2)C[C@H]2C[C@@H]1C2(C)C [Compound 20]
EC50 [1]: > 0.78 µM | MCC (minimum cytotoxic concentration) (MDCK cells): 1.56 µM

C[C@H]1[C@H](NCc2sccc2-c2ccsc2)C[C@H]2C[C@@H]1C2(C)C [Compound 21]
EC50 [1]: > 0.78 µM | MCC (minimum cytotoxic concentration) (MDCK cells): 12.5 µM

C[C@H]1[C@H](NCc2sccc2-c2ccccc2)C[C@H]2C[C@@H]1C2(C)C [Compound 22]
EC50 [1]: > 0.78 µM | MCC (minimum cytotoxic concentration) (MDCK cells): 12.5 µM

C[C@H]1[C@H](NCc2cc(Br)cs2)C[C@H]2C[C@@H]1C2(C)C [Compound 23]
MCC (minimum cytotoxic concentration) (MDCK cells): 6.25 µM

Cc1csc(CN[C@@H]2C[C@H]3C[C@@H]([C@H]2C)C3(C)C)c1 [Compound 24]
MCC (minimum cytotoxic concentration) (MDCK cells): 12.5 µM

CCc1csc(CN[C@@H]2C[C@H]3C[C@@H]([C@H]2C)C3(C)C)c1 [Compound 25]
EC50 [1]: > 0.78 µM | MCC (minimum cytotoxic concentration) (MDCK cells): 25 µM

CCCc1csc(CN[C@@H]2C[C@H]3C[C@@H]([C@H]2C)C3(C)C)c1 [Compound 26]
EC50 [1]: > 0.78 µM | MCC (minimum cytotoxic concentration) (MDCK cells): 12.5 µM

CCCCc1csc(CN[C@@H]2C[C@H]3C[C@@H]([C@H]2C)C3(C)C)c1 [Compound 27]
MCC (minimum cytotoxic concentration) (MDCK cells): 12.5 µM

C=Cc1csc(CN[C@@H]2C[C@H]3C[C@@H]([C@H]2C)C3(C)C)c1 [Compound 28]
EC50 [1]: > 0.78 µM | MCC (minimum cytotoxic concentration) (MDCK cells): 6.25 µM

C=C(C)c1csc(CN[C@@H]2C[C@H]3C[C@@H]([C@H]2C)C3(C)C)c1 [Compound 29]
EC50 [1]: > 0.78 µM | MCC (minimum cytotoxic concentration) (MDCK cells): 25 µM

C[C@H]1[C@H](NCc2cc(C3CC3)cs2)C[C@H]2C[C@@H]1C2(C)C [Compound 30]
MCC (minimum cytotoxic concentration) (MDCK cells): 25 µM

C[C@H]1[C@H](NCc2cc(C3CCCC3)cs2)C[C@H]2C[C@@H]1C2(C)C [Compound 31]
EC50 [1]: > 0.78 µM | MCC (minimum cytotoxic concentration) (MDCK cells): 1.56 µM

C[C@H]1[C@H](NCc2cc(C3CCCCC3)cs2)C[C@H]2C[C@@H]1C2(C)C [Compound 32]
EC50 [1]: > 0.78 µM | MCC (minimum cytotoxic concentration) (MDCK cells): 0.78 µM

C[C@H]1[C@H](NCc2cc(-c3ccsc3)cs2)C[C@H]2C[C@@H]1C2(C)C [Compound 33]
EC50 [1]: > 0.78 µM | MCC (minimum cytotoxic concentration) (MDCK cells): 25 µM

C[C@H]1[C@H](NCc2cc(-c3ccccc3)cs2)C[C@H]2C[C@@H]1C2(C)C [Compound 34]
EC50 [1]: > 0.78 µM | MCC (minimum cytotoxic concentration) (MDCK cells): 5 µM

C[C@H]1[C@H](NCc2ccc(Cl)s2)C[C@H]2C[C@@H]1C2(C)C [Compound 35]
EC50 [1]: > 0.78 µM | MCC (minimum cytotoxic concentration) (MDCK cells): 25 µM

Cc1ccc(CN[C@@H]2C[C@H]3C[C@@H]([C@H]2C)C3(C)C)s1 [Compound 36]
EC50 [1]: > 0.78 µM | MCC (minimum cytotoxic concentration) (MDCK cells): 0.78 µM

C[C@H]1[C@H](NCc2ccc(Br)s2)C[C@H]2C[C@@H]1C2(C)C [Compound 37]
EC50 [1]: > 0.78 µM | MCC (minimum cytotoxic concentration) (MDCK cells): 43 µM

CCc1ccc(CN[C@@H]2C[C@H]3C[C@@H]([C@H]2C)C3(C)C)s1 [Compound 38]
EC50 [1]: > 0.78 µM | MCC (minimum cytotoxic concentration) (MDCK cells): 1.56 µM

C[C@H]1[C@H](NCc2ccc(C(C)(C)C)s2)C[C@H]2C[C@@H]1C2(C)C [Compound 39]
EC50 [1]: > 0.78 µM | MCC (minimum cytotoxic concentration) (MDCK cells): 0.78 µM

CSc1ccc(CN[C@@H]2C[C@H]3C[C@@H]([C@H]2C)C3(C)C)s1 [Compound 40]
EC50 [1]: > 0.78 µM | MCC (minimum cytotoxic concentration) (MDCK cells): 25 µM

C[C@H]1[C@H](NCc2ccc(-c3ccc(Br)s3)s2)C[C@H]2C[C@@H]1C2(C)C [Compound 41]
EC50 [1]: > 0.78 µM | MCC (minimum cytotoxic concentration) (MDCK cells): 0.78 µM
